# Laboratory results as given in ChEMBL document CHEMBL1151186, “Ether-linked biflavonoids from Quintinia acutifolia” (J Nat Prod, 2004).
# Activity calls are given as the source filed them. The rule behind the calls is not given here.
# Experiments:
# P388 [1] = test: Cytotoxicity against mouse P388 cells; format: functional, cell-based
# Bacillus subtilis [2] = test: Antimicrobial activity against Bacillus subtilis ATCC 19659 at 150 ug/disk; format: functional, organism-based
# P388 [3] = test: Cytotoxicity against mouse P388 cells at 0.06 ug/mL; format: functional
# Bacillus subtilis [4] = test: Antimicrobial activity against Bacillus subtilis ATCC 19659 at 30 ug/disk; format: functional; conditions: read-out: IZ
Structure (SMILES),IC50 (P388 [1]) [mg/L],Activity (Bacillus subtilis [2]),Activity (P388 [3]) [%],zone of inhibition at 30 µg/disc (Bacillus subtilis [4]) [mm]
COc1cc(O)c2c(c1)OC(c1ccc(Oc3cc(C4CC(=O)c5c(O)cc(OC)cc5O4)ccc3O)cc1)CC2=O (centres undefined),8.7,inactive,–,–
O=C1CC(c2ccc(Oc3cc(-c4cc(=O)c5c(O)cc(O)cc5o4)ccc3O)cc2)Oc2cc(O)cc(O)c21 (centres undefined),3.1,inactive,–,–
CO[C@@]12[C@H](COC(N)=O)C3=C(C(=O)C(C)=C(N)C3=O)N1C[C@@H]1N[C@@H]12 [MITOMYCIN],–,–,43,–
COc1cc(O)c2c(c1)OC(c1ccc(O)c(Oc3ccc(C4CC(=O)c5c(O)cc(O)cc5O4)cc3)c1)CC2=O (centres undefined),–,inactive,–,–
O=C(N[C@H](CO)[C@H](O)c1ccc([N+](=O)[O-])cc1)C(Cl)Cl [CHLORAMPHENICOL],–,–,–,12
O=C1CC(c2ccc(Oc3cc(C4CC(=O)c5c(O)cc(O)cc5O4)ccc3O)cc2)Oc2cc(O)cc(O)c21 (centres undefined),8.2,inactive,–,–
